From the supplement of paper PMC10307832

Key:
Assay in all cases: relative viability (nuclei count vs DMSO), 5 days (fraction); higher = more cells survive
201T = test system: 201T
Outline: (§1)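 Five library-drug doses in √10 steps were combined with a fixed anchor-drug dose, or a single drug was given alone, by pin tool to lung cancer cell lines in 1536-well plates the day after seeding. Nuclei were stained and counted after 5 days. Relative viability is the nuclei count in treated wells over that in vehicle wells, taken as the median of duplicate plates.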

ABC-1 = test system: ABC-1
Outline: as §1

BEN = test system: BEN
Outline: as §1

HCC-366 = test system: HCC-366
Outline: as §1

HCC-44 = test system: HCC-44
Outline: as §1

HCC-78 = test system: HCC-78
Outline: as §1

LK-2 = test system: LK-2
Outline: as §1

LOU-NH91 = test system: LOU-NH91
Outline: as §1

NCI-H1355 = test system: NCI-H1355
Outline: as §1

NCI-H1650 = test system: NCI-H1650
Outline: as §1

NCI-H1666 = test system: NCI-H1666
Outline: as §1

NCI-H1734 = test system: NCI-H1734
Outline: as §1

NCI-H1755 = test system: NCI-H1755
Outline: as §1

NCI-H2009 = test system: NCI-H2009
Outline: as §1

NCI-H2228 = test system: NCI-H2228
Outline: as §1

NCI-H2347 = test system: NCI-H2347
Outline: as §1

NCI-H2405 = test system: NCI-H2405
Outline: as §1

NCI-H358 = test system: NCI-H358
Outline: as §1

NCI-H520 = test system: NCI-H520
Outline: as §1

NCI-H727 = test system: NCI-H727
Outline: as §1

NCI-H838 = test system: NCI-H838
Outline: as §1

SW 1573 = test system: SW 1573
Outline: as §1

UMC-11 = test system: UMC-11
Outline: as §1

O=c1[nH]c2ccccc2n1C1CCN(CCCC(c2ccc(F)cc2)c2ccc(F)cc2)CC1 [Pimozide] + Cc1cc(Nc2cc(N3CCN(C)CC3)nc(Sc3ccc(NC(=O)C4CC4)cc3)n2)n[nH]1 [Tozasertib] (partner 0.1 µM)
relative viability (201T; first compound 0.08 µM): 0.88
relative viability (201T; first compound 0.253 µM): 0.94
relative viability (201T; first compound 0.8 µM): 0.871
relative viability (201T; first compound 2.53 µM): 0.747
relative viability (201T; first compound 8 µM): 0.636
relative viability (ABC-1; first compound 0.08 µM): 0.213
relative viability (ABC-1; first compound 0.253 µM): 0.214
relative viability (ABC-1; first compound 0.8 µM): 0.184
relative viability (ABC-1; first compound 2.53 µM): 0.178
relative viability (ABC-1; first compound 8 µM): 0.203
relative viability (BEN; first compound 0.08 µM): 0.465
relative viability (BEN; first compound 0.253 µM): 0.548
relative viability (BEN; first compound 0.8 µM): 0.427
relative viability (BEN; first compound 2.53 µM): 0.471
relative viability (BEN; first compound 8 µM): 0.422
relative viability (HCC-366; first compound 0.08 µM): 0.079
relative viability (HCC-366; first compound 0.253 µM): 0.0803
relative viability (HCC-366; first compound 0.8 µM): 0.142
relative viability (HCC-366; first compound 2.53 µM): 0.0868
relative viability (HCC-366; first compound 8 µM): 0.0997
relative viability (HCC-44; first compound 0.08 µM): 1.16
relative viability (HCC-44; first compound 0.253 µM): 0.918
relative viability (HCC-44; first compound 0.8 µM): 0.811
relative viability (HCC-44; first compound 2.53 µM): 0.499
relative viability (HCC-44; first compound 8 µM): 0.983
relative viability (HCC-78; first compound 0.08 µM): 0.336
relative viability (HCC-78; first compound 0.8 µM): 0.319
relative viability (HCC-78; first compound 2.53 µM): 0.371
relative viability (HCC-78; first compound 8 µM): 0.327
relative viability (LK-2; first compound 0.08 µM): 0.173
relative viability (LK-2; first compound 0.253 µM): 0.178
relative viability (LK-2; first compound 2.53 µM): 0.167
relative viability (LK-2; first compound 8 µM): 0.171
relative viability (LOU-NH91; first compound 0.08 µM): 0.451
relative viability (LOU-NH91; first compound 0.253 µM): 0.614
relative viability (LOU-NH91; first compound 0.8 µM): 0.553
relative viability (LOU-NH91; first compound 2.53 µM): 0.648
relative viability (LOU-NH91; first compound 8 µM): 0.652
relative viability (NCI-H1355; first compound 0.08 µM): 0.569
relative viability (NCI-H1355; first compound 0.253 µM): 0.534
relative viability (NCI-H1355; first compound 0.8 µM): 0.462
relative viability (NCI-H1355; first compound 2.53 µM): 0.376
relative viability (NCI-H1355; first compound 8 µM): 0.414
relative viability (NCI-H1650; first compound 0.08 µM): 0.347
relative viability (NCI-H1650; first compound 0.253 µM): 0.398
relative viability (NCI-H1650; first compound 0.8 µM): 0.475
relative viability (NCI-H1650; first compound 2.53 µM): 0.331
relative viability (NCI-H1650; first compound 8 µM): 0.307
relative viability (NCI-H1666; first compound 0.08 µM): 0.628
relative viability (NCI-H1666; first compound 0.253 µM): 0.571
relative viability (NCI-H1666; first compound 0.8 µM): 0.648
relative viability (NCI-H1666; first compound 2.53 µM): 0.559
relative viability (NCI-H1666; first compound 8 µM): 0.476
relative viability (NCI-H1734; first compound 0.08 µM): 0.277
relative viability (NCI-H1734; first compound 0.253 µM): 0.289
relative viability (NCI-H1734; first compound 2.53 µM): 0.255
relative viability (NCI-H1734; first compound 8 µM): 0.271
relative viability (NCI-H1755; first compound 0.08 µM): 0.562
relative viability (NCI-H1755; first compound 0.253 µM): 0.58
relative viability (NCI-H1755; first compound 0.8 µM): 0.591
relative viability (NCI-H1755; first compound 2.53 µM): 0.491
relative viability (NCI-H1755; first compound 8 µM): 0.57
relative viability (NCI-H2009; first compound 0.08 µM): 0.696
relative viability (NCI-H2009; first compound 0.253 µM): 0.754
relative viability (NCI-H2009; first compound 0.8 µM): 0.683
relative viability (NCI-H2009; first compound 2.53 µM): 0.58
relative viability (NCI-H2009; first compound 8 µM): 0.577
relative viability (NCI-H2228; first compound 0.08 µM): 0.263
relative viability (NCI-H2228; first compound 0.253 µM): 0.262
relative viability (NCI-H2228; first compound 0.8 µM): 0.308
relative viability (NCI-H2228; first compound 2.53 µM): 0.172
relative viability (NCI-H2228; first compound 8 µM): 0.148
relative viability (NCI-H2347; first compound 0.253 µM): 0.582
relative viability (NCI-H2347; first compound 0.8 µM): 0.531
relative viability (NCI-H2347; first compound 2.53 µM): 0.563
relative viability (NCI-H2347; first compound 8 µM): 0.578
relative viability (NCI-H2405; first compound 0.08 µM): 0.754
relative viability (NCI-H2405; first compound 0.253 µM): 0.712
relative viability (NCI-H2405; first compound 0.8 µM): 0.683
relative viability (NCI-H2405; first compound 2.53 µM): 0.673
relative viability (NCI-H2405; first compound 8 µM): 0.575
relative viability (NCI-H358; first compound 0.08 µM): 0.0997
relative viability (NCI-H358; first compound 0.253 µM): 0.11
relative viability (NCI-H358; first compound 0.8 µM): 0.112
relative viability (NCI-H358; first compound 2.53 µM): 0.108
relative viability (NCI-H358; first compound 8 µM): 0.106
relative viability (NCI-H520; first compound 0.08 µM): 0.503
relative viability (NCI-H520; first compound 0.253 µM): 0.422
relative viability (NCI-H520; first compound 0.8 µM): 0.42
relative viability (NCI-H520; first compound 2.53 µM): 0.435
relative viability (NCI-H520; first compound 8 µM): 0.366
relative viability (NCI-H727; first compound 0.08 µM): 0.734
relative viability (NCI-H727; first compound 0.253 µM): 0.694
relative viability (NCI-H727; first compound 0.8 µM): 0.509
relative viability (NCI-H727; first compound 2.53 µM): 0.65
relative viability (NCI-H727; first compound 8 µM): 0.496
relative viability (NCI-H838; first compound 0.08 µM): 0.271
relative viability (NCI-H838; first compound 0.253 µM): 0.287
relative viability (NCI-H838; first compound 0.8 µM): 0.31
relative viability (NCI-H838; first compound 2.53 µM): 0.276
relative viability (NCI-H838; first compound 8 µM): 0.323
relative viability (SW 1573; first compound 0.08 µM): 0.132
relative viability (SW 1573; first compound 0.253 µM): 0.273
relative viability (SW 1573; first compound 0.8 µM): 0.133
relative viability (SW 1573; first compound 2.53 µM): 0.194
relative viability (SW 1573; first compound 8 µM): 0.174
relative viability (UMC-11; first compound 0.08 µM): 0.188
relative viability (UMC-11; first compound 0.253 µM): 0.201
relative viability (UMC-11; first compound 0.8 µM): 0.205
relative viability (UMC-11; first compound 2.53 µM): 0.205
relative viability (UMC-11; first compound 8 µM): 0.205
